# Measured values published in patent US10023602B2, “Hamamelitannin analogues and uses thereof” (Universiteit Gent, priority 2014, dated 2018).
# What was measured:
# [1] = test system: methicillin resistant S. aureus Mu50 strain (S. aureus ATCC700699) biofilm; assay: Biofilm susceptibility to vancomycin, pre-treatment regimen (biofilm formed in presence of compound, then vancomycin); format: cell-based; conditions: for Pretreat (100 μM): percentage Colony Forming Units (CFU's) per biofilm: compound 100 μM during biofilm formation, then VAN 20 μg/ml, compared to the untreated (negative) control; for EC50: concentration needed to get 50% killing compared to antibiotic alone (VAN 20 μg/ml) and complete killing, read-out: Pretreat. (EC50)
# How it was run: (§1)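 Mu50 biofilms from 10^8 CFU/ml inoculum (4 h adhesion, then 20 h, 37 °C). Pre-treatment: compound (0.1-250 μM) present during biofilm formation, then vancomycin 20 μg/ml alone 24 h; combination: mature biofilm given vancomycin 20 μg/ml plus compound 24 h. Survivors counted by plating versus vancomycin alone.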
# [2] = test system: methicillin resistant S. aureus Mu50 strain (S. aureus ATCC700699) biofilm; assay: Biofilm susceptibility to vancomycin, combination treatment regimen (mature biofilm treated with compound plus vancomycin); format: cell-based; conditions: for Combin. (100 μM): percentage Colony Forming Units (CFU's) per biofilm: compound 100 μM together with VAN 20 μg/ml on mature biofilm, compared to the untreated (negative) control; for EC50: concentration needed to get 50% killing compared to antibiotic alone (VAN 20 μg/ml) and complete killing, read-out: Combin. (EC50)
# How it was run: as §1
SMILES,Pretreat (100 μM): percentage Colony Forming Units (CFU's) per biofilm [1] [percentage],EC50 [1] [µM],Combin. (100 μM): percentage Colony Forming Units (CFU's) per biofilm [2] [percentage],EC50 [2] [µM]
"O=C(NC[C@]1(O)CO[C@H](CNC(=O)c2ccncc2Cl)[C@H]1O)c1ccccc1 [compound 200, N-(((2R,3R,4S)-4-(benzamidomethyl)-3,4-dihydroxytetrahydrofuran-2-yl)methyl)-3-chloroisonicotinamide]",58.59,> 250,48.93,232
"O=C(NC[C@]1(O)CO[C@H](CNC(=O)c2cnccc2Cl)[C@H]1O)c1ccccc1 [compound 201, N-(((2R,3R,4S)-4-(benzamidomethyl)-3,4-dihydroxytetrahydrofuran-2-yl)methyl)-4-chloronicotinamide]",51.81,200,74.81,> 250
"O=C(NC[C@H]1OC[C@@](O)(CNC(=O)c2ccccc2)[C@@H]1O)c1ccc(Cl)nc1 [compound 202, N-(((2R,3R,4S)-4-(benzamidomethyl)-3,4-dihydroxytetrahydrofuran-2-yl)methyl)-6-chloronicotinamide]",14.00,,18.24,
"O=C(NC[C@]1(O)CO[C@H](CNC(=O)c2ncccn2)[C@H]1O)c1ccccc1 [compound 203, N-(((2R,3R,4S)-4-(benzamidomethyl)-3,4-dihydroxytetrahydrofuran-2-yl)methyl)pyrimidine-2-carboxamide]",41.20,,31.95,
"O=C(NC[C@]1(O)CO[C@H](CNC(=O)c2ccncn2)[C@H]1O)c1ccccc1 [compound 204, N-(((2R,3R,4S)-4-(benzamidomethyl)-3,4-dihydroxytetrahydrofuran-2-yl)methyl)pyrimidine-4-carboxamide]",13.04,,15.85,
"O=C(NC[C@H]1OC[C@@](O)(CNC(=O)c2ccccc2)[C@@H]1O)c1cncnc1 [compound 205, N-(((2R,3R,4S)-4-(benzamidomethyl)-3,4-dihydroxytetrahydrofuran-2-yl)methyl)pyrimidine-5-carboxamide]",6.699,,16.51,
"O=C(NC[C@]1(O)CO[C@H](CNC(=O)c2cccnn2)[C@H]1O)c1ccccc1 [compound 206, N-(((2R,3R,4S)-4-(benzamidomethyl)-3,4-dihydroxytetrahydrofuran-2-yl)methyl)pyridazine-3-carboxamide]",6.460,,15.17,
"O=C(NC[C@H]1OC[C@@](O)(CNC(=O)c2ccccc2)[C@@H]1O)c1ccnnc1 [compound 207, N-(((2R,3R,4S)-4-(benzamidomethyl)-3,4-dihydroxytetrahydrofuran-2-yl)methyl)pyridazine-4-carboxamide]",6.950,7.28,13.70,8.54
"O=C(NC[C@]1(O)CO[C@H](CNC(=O)c2cnccn2)[C@H]1O)c1ccccc1 [compound 208, N-(((2R,3R,4S)-4-(benzamidomethyl)-3,4-dihydroxytetrahydrofuran-2-yl)methyl)pyrazine-2-carboxamide]",10.52,,18.77,
"Cn1nccc1C(=O)NC[C@H]1OC[C@@](O)(CNC(=O)c2ccccc2)[C@@H]1O [compound 209, N-(((2R,3R,4S)-4-(benzamidomethyl)-3,4-dihydroxytetrahydrofuran-2-yl)methyl)-1-methyl-1H-pyrazole-5-carboxamide]",22.47,29.3,21.74,23.5
"Cn1cncc1C(=O)NC[C@H]1OC[C@@](O)(CNC(=O)c2ccccc2)[C@@H]1O [compound 210, N-(((2R,3R,4S)-4-(benzamidomethyl)-3,4-dihydroxytetrahydrofuran-2-yl)methyl)-1-methyl-1H-imidazole-5-carboxamide]",22.10,52.3,26.95,58.2
"CS(=O)(=O)NC[C@H]1OC[C@@](O)(CNC(=O)c2ccccc2)[C@@H]1O [compound 211, N-(((3S,4R,5R)-3,4-dihydroxy-5-(methylsulfonamidomethyl)tetrahydrofuran-3-yl)methyl)benzamide]",31.02,,38.03,
"CCS(=O)(=O)NC[C@H]1OC[C@@](O)(CNC(=O)c2ccccc2)[C@@H]1O [compound 212, N-(((3S,4R,5R)-5-(ethylsulfonamidomethyl)-3,4-dihydroxytetrahydrofuran-3-yl)methyl)benzamide]",50.68,,52.64,
"CC(C)S(=O)(=O)NC[C@H]1OC[C@@](O)(CNC(=O)c2ccccc2)[C@@H]1O [compound 213, N-(((3S,4R,5R)-3,4-dihydroxy-5-(((1-methylethyl)sulfonamido)methyl)tetrahydrofuran-3-yl)methyl)benzamide]",28.32,,32.67,
"O=C(NC[C@]1(O)CO[C@H](CNS(=O)(=O)C(F)(F)F)[C@H]1O)c1ccccc1 [compound 214, N-(((3S,4R,5R)-3,4-dihydroxy-5-(((trifluoromethyl)sulfonamido)methyl)tetrahydrofuran-3-yl)methyl)benzamide]",29.28,,42.85,
"O=C(NC[C@]1(O)CO[C@H](CNS(=O)(=O)c2ccccc2)[C@H]1O)c1ccccc1 [compound 215, N-(((3S,4R,5R)-3,4-dihydroxy-5-(phenylsulfonamidomethyl)tetrahydrofuran-3-yl)methyl)benzamide]",22.23,,31.29,
"Cc1ccc(S(=O)(=O)NC[C@H]2OC[C@@](O)(CNC(=O)c3ccccc3)[C@@H]2O)cc1 [compound 216, N-(((3S,4R,5R)-3,4-dihydroxy-5-(((4-methylphenyl)sulfonamido)methyl)tetrahydrofuran-3-yl)methyl)benzamide]",16.96,,25.95,
"O=C(NC[C@]1(O)CO[C@H](CNS(=O)(=O)c2ccc(Cl)cc2)[C@H]1O)c1ccccc1 [compound 217, N-(((3S,4R,5R)-5-(((4-chlorophenyl)sulfonamido)methyl)-3,4-dihydroxytetrahydrofuran-3-yl)methyl)benzamide]",14.04,23.5,14.85,27.8
